Assay results reported in US20240398767A1, “INHIBITORS OF THE MTDH-SND1 PROTEIN COMPLEX FOR CANCER THERAPY” (The Trustees of Princeton University, priority 2021, published 2024).

Legend:
MTDH-SND1 interaction = target: T1, MTDH-SND1 interaction (Homo sapiens, UniProt Q7KZF4); assay: Co-immunoprecipitation (Co-IP) in SCP28 lysates with anti-MTDH antibody, Western blot for SND1; format: binding; conditions: 500 μM, SCP28 lysate
T1 construct: endogenous in cells; host or cells: SCP28 cells (lysate)
T1 sequence (Q7KZF4 2-910 limits assumed): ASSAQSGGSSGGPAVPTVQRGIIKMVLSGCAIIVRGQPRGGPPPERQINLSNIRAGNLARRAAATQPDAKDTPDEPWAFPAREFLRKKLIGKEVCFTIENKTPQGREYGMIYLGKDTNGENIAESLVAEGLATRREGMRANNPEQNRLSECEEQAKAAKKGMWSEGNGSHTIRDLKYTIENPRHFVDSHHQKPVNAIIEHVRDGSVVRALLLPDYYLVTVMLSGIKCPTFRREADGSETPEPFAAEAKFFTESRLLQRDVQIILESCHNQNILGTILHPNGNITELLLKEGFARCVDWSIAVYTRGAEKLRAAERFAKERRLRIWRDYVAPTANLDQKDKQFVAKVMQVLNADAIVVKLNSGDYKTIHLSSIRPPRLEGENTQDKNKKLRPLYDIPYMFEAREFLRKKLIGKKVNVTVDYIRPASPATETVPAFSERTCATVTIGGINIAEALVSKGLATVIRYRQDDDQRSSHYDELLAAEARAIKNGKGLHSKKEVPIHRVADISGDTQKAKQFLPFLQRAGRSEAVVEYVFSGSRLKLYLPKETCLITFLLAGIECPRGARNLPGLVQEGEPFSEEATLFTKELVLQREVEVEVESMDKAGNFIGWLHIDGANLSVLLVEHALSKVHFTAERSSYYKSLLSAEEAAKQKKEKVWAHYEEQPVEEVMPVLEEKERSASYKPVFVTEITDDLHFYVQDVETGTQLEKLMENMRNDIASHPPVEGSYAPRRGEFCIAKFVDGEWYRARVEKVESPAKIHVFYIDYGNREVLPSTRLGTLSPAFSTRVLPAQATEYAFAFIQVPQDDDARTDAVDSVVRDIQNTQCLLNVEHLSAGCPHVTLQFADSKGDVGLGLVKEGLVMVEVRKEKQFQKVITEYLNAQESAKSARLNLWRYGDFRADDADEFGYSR
Protocol: FIG. 3F, SCP28 cells grown confluent in each 10-cm dish were lysed with 1 ml IP lysis buffer. 500 μM of the compounds were added into each 1 ml of the samples and IP lysis buffer with 2 μg of anti-MTDH antibody. Western blot was then performed to detect SND1 that binds to MTDH.
FIG. 10E, Schematic diagram of Co-IP based confirmation of MTDH-SND1 inhibitory compounds (left). SCP28 cells were lysed for IP assay.2 μg of MTDH antibody together with 500 μM of MTDH wild type (Pep-WT) or mutant (Pep-MT) peptides were added into each 1 ml of samples. Red star indicates wild type MTDH peptide competing off SND1 that binds to MTDH.
Co-immunoprecipitation assay (Co-IP), which is a commonly used standard test to determine protein-protein interaction, was next employed to validate the candidates. Lysates of breast cancer cell line SCP28, a single cell-derived subline from the MDA-MB-231 TNBC cell line^25, was immunoprecipitated with anti-MTDH antibody alone or together with inhibitors (FIG. 3F and FIG. 10E). The samples were then incubated with Protein-A/G beads to pull down MTDH, followed by Western blot analysis to detect SND1. […] Using multiple screening and validation platforms, two classes of compounds, C26s and C32s, were obtained that inhibit MTDH-SND1 interaction.
Immunoprecipitation (IP) and western blotting (WB) analysis. For IP experiment, samples were prepared as previously described^32. 100 μl of the supernatant was transferred to a new tube as input, and the rest was incubated with 2 μg of IgG, anti-Myc (Santa Cruz, SC-40), or anti-MTDH (ThermoFisher, 40-6500) (as indicated in each experiment) overnight at 4° C. (small chemical compounds may be added at this step as indicated in each experiment). The rest standard IP procedures were performed as previously noted^32. […]

Caco-2 cells = assay: Caco-2 cell based permeability test; format: in vitro ADME; conditions: 5 μM, A-to-B and B-to-A, 120 min
Protocol: FIG. 11A, Caco-2 cells were employed to test cell permeability of C26-A2 and A6. 5 μM of compounds were dosed on both apical side (A-to-B) and basolateral side (B-to-A). Samples were taken from the donor and receiver chambers at 120 min after treatment. All samples were assayed by LC-MS/MS using electrospray ionization. The apparent permeability (Papp) and percent recovery were calculated.
C26s cell permeability test. The cell permeability of C26-A2 and A6 were determined with monolayer of Caco-2 cells with both the apical-to-basolateral (A-to-B) and basolateral-to-apical (B-to-A) directions by Absorption Systems LLC Detailed protocol can be found in previous studies.

[1] = system: C3;UBC-CreERT+/-;Mtdhfl/fl tumor cells; assay: Tumorsphere assay, C3;UBC-CreERT+/-;Mtdhfl/fl tumor cells; format: cell-based, mouse; conditions: with or without 4-OHT pre-treatment
Protocol: For FIGS. 11B-11E, 50 k per well of cells were seeded and treated with indicated compounds the next day. 5 days after treatment, sphere number and size were assessed and normalized to vehicle control group. Data represent mean±SEM. n=3 independent experiments. Significance determined by one-way ANOVA analysis with Dunnett's test for multiple comparisons.
FIG. 11B, C3; UBC-Cre^ERT+/−;Mtdh^fl/fl tumor cells (FIGS. 11D, 11E) without 5 days of 0.02 μg/ml 4-OHT pre-treatment were subjected to the tumorsphere assay.
FIG. 11C, C3; UBC-Cre^ERT+/−;Mtdh^fl/fl tumor cells with 5 days of 0.02 μg/ml 4-OHT pre-treatment were subjected to the tumorsphere assay.

SMILES | MTDH-SND1 interaction (SND1 that binds to MTDH, Co-IP) (MTDH-SND1 interaction) | cell permeability (Caco-2 cells) | tumorsphere formation (sphere number and size) [1]
COc1ccc(Cl)cc1S(=O)(=O)Nc1cccn2ncnc12 [Analog C26-A2] | strongest inhibitory effects | highly permeable | confirmed
COc1ccc(Cl)cc1S(=O)(=O)Nc1cccn2nc(C)nc12 [Analog C26-A6] | strongest inhibitory effects | highly permeable | confirmed
